How the values were obtained:
MDA-N = test: In vitro cytostatic effect (SRB): MDA-N, Breast cancer
HCT-116 = test: In vitro cytostatic effect (SRB): HCT-116, Intestinal cancer
OVCAR-8 = test: In vitro cytostatic effect (SRB): OVCAR-8, Ovarian cancer
UACC-257 = test: In vitro cytostatic effect (SRB): UACC-257, Melanoma
PC-3 = test: In vitro cytostatic effect (SRB): PC-3, Prostate cancer
HCT-15 = test: In vitro cytostatic effect (SRB): HCT-15, Intestinal cancer
NCI-H226 = test: In vitro cytostatic effect (SRB): NCI-H226, Lung cancer
SK-MEL-5 = test: In vitro cytostatic effect (SRB): SK-MEL-5, Melanoma
SNB-19 = test: In vitro cytostatic effect (SRB): SNB-19, Cancer of the central nervous system
CCRF-CEM = test: In vitro cytostatic effect (SRB): CCRF-CEM, Leukemia
RPMI-8226 = test: In vitro cytostatic effect (SRB): RPMI-8226, Leukemia
DU-145 = test: In vitro cytostatic effect (SRB): DU-145, Prostate cancer
TK-10 = test: In vitro cytostatic effect (SRB): TK-10, Kidney cancer
NCI-H23 = test: In vitro cytostatic effect (SRB): NCI-H23, Lung cancer
MDA-MB-435 = test: In vitro cytostatic effect (SRB): MDA-MB-435, Breast cancer
IGROV1 = test: In vitro cytostatic effect (SRB): IGROV1, Ovarian cancer
HS 578T = test: In vitro cytostatic effect (SRB): HS 578T, Breast cancer
SN12C = test: In vitro cytostatic effect (SRB): SN12C, Kidney cancer
KM12 = test: In vitro cytostatic effect (SRB): KM12, Intestinal cancer
T-47D = test: In vitro cytostatic effect (SRB): T-47D, Breast cancer
SK-MEL-2 = test: In vitro cytostatic effect (SRB): SK-MEL-2, Melanoma
MCF7 = test: In vitro cytostatic effect (SRB): MCF7, Breast cancer
HOP-92 = test: In vitro cytostatic effect (SRB): HOP-92, Lung cancer
MDA-MB-231/ATCC = test: In vitro cytostatic effect (SRB): MDA-MB-231/ATCC, Breast cancer
SK-OV-3 = test: In vitro cytostatic effect (SRB): SK-OV-3, Ovarian cancer
SW-620 = test: In vitro cytostatic effect (SRB): SW-620, Intestinal cancer
CAKI-1 = test: In vitro cytostatic effect (SRB): CAKI-1, Kidney cancer
[1] = read-out: LC50, 48-hour incubation

Question: With `CCCCCCCCCCCCCCCCCCOC(COP(=O)(O)OCC1OC(n2cc(F)c(=O)[nH]c2=O)CC1O)COP(=O)(O)OCC1OC(n2ccc(N)nc2=O)C(O)C1O` (racemic) [NSC 698688-A/1, arabinocytidylyl-(5′→1)-2-O-octadecyl-rac-glycerylyl-(3→5′)-5-fluoro-2′-deoxyuridine] as the compound, how does the GI50 (MDA-N; 48-hour incubation) read?
Answer: The GI50 was over 100 µM.

Question: What about the TGI (MDA-N; 48-hour incubation) of the same compound?
Answer: Its TGI is over 1.00E − 04 mol/l.

Question: What about the CC50 (MDA-N; [1]) of the same compound?
Answer: Its CC50 is over 100 µM.

Question: And the GI50 (HCT-116; 48-hour incubation)?
Answer: Its GI50 is 4.9 µM.

Question: What about the TGI (HCT-116; 48-hour incubation) of the same compound?
Answer: Its TGI is over 1.00E − 04 mol/l.

Question: And the CC50 (HCT-116; [1])?
Answer: The CC50 was over 100 µM.

Question: And the GI50 (OVCAR-8; 48-hour incubation)?
Answer: Its GI50 is 968 nM.

Question: What about the TGI (OVCAR-8; 48-hour incubation) of the same compound?
Answer: The TGI was over 1.00E − 04 mol/l.

Question: And the CC50 (OVCAR-8; [1])?
Answer: Its CC50 is over 100 µM.

Question: What about the GI50 (UACC-257; 48-hour incubation) of the same compound?
Answer: The GI50 was 49.8 µM.

Question: What about the TGI (UACC-257; 48-hour incubation) of the same compound?
Answer: The TGI was over 1.00E − 04 mol/l.

Question: And the CC50 (UACC-257; [1])?
Answer: Its CC50 is over 100 µM.

Question: What about the GI50 (PC-3; 48-hour incubation) of the same compound?
Answer: Its GI50 is 11.5 µM.

Question: And the TGI (PC-3; 48-hour incubation)?
Answer: The TGI was 8.64E − 05 mol/l.

Question: And the CC50 (PC-3; [1])?
Answer: Its CC50 is over 100 µM.

Question: What about the GI50 (HCT-15; 48-hour incubation) of the same compound?
Answer: Its GI50 is 14.4 µM.

Question: What about the TGI (HCT-15; 48-hour incubation) of the same compound?
Answer: The TGI was over 1.00E − 04 mol/l.

Question: What about the CC50 (HCT-15; [1]) of the same compound?
Answer: The CC50 was over 100 µM.

Question: What about the GI50 (NCI-H226; 48-hour incubation) of the same compound?
Answer: The GI50 was 75.9 µM.

Question: What about the TGI (NCI-H226; 48-hour incubation) of the same compound?
Answer: The TGI was over 1.00E − 04 mol/l.

Question: And the CC50 (NCI-H226; [1])?
Answer: The CC50 was over 100 µM.

Question: And the GI50 (SK-MEL-5; 48-hour incubation)?
Answer: Its GI50 is over 100 µM.

Question: What about the TGI (SK-MEL-5; 48-hour incubation) of the same compound?
Answer: The TGI was over 1.00E − 04 mol/l.

Question: And the CC50 (SK-MEL-5; [1])?
Answer: The CC50 was over 100 µM.

Question: And the GI50 (SNB-19; 48-hour incubation)?
Answer: Its GI50 is 919 nM.

Question: What about the TGI (SNB-19; 48-hour incubation) of the same compound?
Answer: The TGI was 2.37E − 05 mol/l.

Question: And the CC50 (SNB-19; [1])?
Answer: Its CC50 is 64.1 µM.

Question: What about the GI50 (CCRF-CEM; 48-hour incubation) of the same compound?
Answer: The GI50 was 1280 nM.

Question: What about the TGI (CCRF-CEM; 48-hour incubation) of the same compound?
Answer: The TGI was over 1.00E − 04 mol/l.

Question: What about the CC50 (CCRF-CEM; [1]) of the same compound?
Answer: The CC50 was over 100 µM.

Question: And the GI50 (RPMI-8226; 48-hour incubation)?
Answer: Its GI50 is 1650 nM.

Question: And the TGI (RPMI-8226; 48-hour incubation)?
Answer: The TGI was over 1.00E − 04 mol/l.

Question: And the CC50 (RPMI-8226; [1])?
Answer: The CC50 was over 100 µM.

Question: What about the GI50 (DU-145; 48-hour incubation) of the same compound?
Answer: The GI50 was 2680 nM.

Question: And the TGI (DU-145; 48-hour incubation)?
Answer: The TGI was over 1.00E − 04 mol/l.

Question: And the CC50 (DU-145; [1])?
Answer: Its CC50 is over 100 µM.

Question: And the GI50 (TK-10; 48-hour incubation)?
Answer: The GI50 was 22.9 µM.

Question: What about the TGI (TK-10; 48-hour incubation) of the same compound?
Answer: Its TGI is over 1.00E − 04 mol/l.

Question: What about the CC50 (TK-10; [1]) of the same compound?
Answer: The CC50 was over 100 µM.

Question: What about the GI50 (NCI-H23; 48-hour incubation) of the same compound?
Answer: Its GI50 is 7.23 µM.

Question: What about the TGI (NCI-H23; 48-hour incubation) of the same compound?
Answer: The TGI was over 1.00E − 04 mol/l.

Question: What about the CC50 (NCI-H23; [1]) of the same compound?
Answer: Its CC50 is over 100 µM.

Question: And the GI50 (MDA-MB-435; 48-hour incubation)?
Answer: The GI50 was 33.8 µM.

Question: What about the TGI (MDA-MB-435; 48-hour incubation) of the same compound?
Answer: The TGI was over 1.00E − 04 mol/l.

Question: What about the CC50 (MDA-MB-435; [1]) of the same compound?
Answer: The CC50 was over 100 µM.

Question: What about the GI50 (IGROV1; 48-hour incubation) of the same compound?
Answer: Its GI50 is 13.6 µM.

Question: And the TGI (IGROV1; 48-hour incubation)?
Answer: The TGI was over 1.00E − 04 mol/l.

Question: What about the CC50 (IGROV1; [1]) of the same compound?
Answer: Its CC50 is over 100 µM.

Question: What about the GI50 (HS 578T; 48-hour incubation) of the same compound?
Answer: The GI50 was over 100 µM.

Question: And the TGI (HS 578T; 48-hour incubation)?
Answer: The TGI was over 1.00E − 04 mol/l.

Question: What about the CC50 (HS 578T; [1]) of the same compound?
Answer: Its CC50 is over 100 µM.

Question: What about the GI50 (SN12C; 48-hour incubation) of the same compound?
Answer: Its GI50 is 13.3 µM.

Question: What about the TGI (SN12C; 48-hour incubation) of the same compound?
Answer: Its TGI is over 1.00E − 04 mol/l.

Question: And the CC50 (SN12C; [1])?
Answer: Its CC50 is over 100 µM.

Question: And the GI50 (KM12; 48-hour incubation)?
Answer: Its GI50 is 74.7 µM.

Question: And the TGI (KM12; 48-hour incubation)?
Answer: Its TGI is over 1.00E − 04 mol/l.

Question: What about the CC50 (KM12; [1]) of the same compound?
Answer: The CC50 was over 100 µM.

Question: What about the GI50 (T-47D; 48-hour incubation) of the same compound?
Answer: Its GI50 is over 100 µM.

Question: What about the TGI (T-47D; 48-hour incubation) of the same compound?
Answer: Its TGI is over 1.00E − 04 mol/l.

Question: And the CC50 (T-47D; [1])?
Answer: Its CC50 is over 100 µM.

Question: And the GI50 (HL-60(TB); Leukemia, 48-hour incubation)?
Answer: The GI50 was 3.66 µM.

Question: What about the TGI (HL-60(TB); Leukemia, 48-hour incubation) of the same compound?
Answer: Its TGI is over 1.00E − 04 mol/l.

Question: And the CC50 (HL-60(TB); read-out: LC50, Leukemia, 48-hour incubation)?
Answer: The CC50 was over 100 µM.

Question: What about the GI50 (SK-MEL-2; 48-hour incubation) of the same compound?
Answer: Its GI50 is over 100 µM.

Question: What about the TGI (SK-MEL-2; 48-hour incubation) of the same compound?
Answer: The TGI was over 1.00E − 04 mol/l.

Question: And the CC50 (SK-MEL-2; [1])?
Answer: The CC50 was over 100 µM.

Question: What about the GI50 (MCF7; 48-hour incubation) of the same compound?
Answer: The GI50 was 170 nM.

Question: What about the TGI (MCF7; 48-hour incubation) of the same compound?
Answer: Its TGI is over 1.00E − 04 mol/l.

Question: What about the CC50 (MCF7; [1]) of the same compound?
Answer: Its CC50 is over 100 µM.

Question: What about the GI50 (HOP-92; 48-hour incubation) of the same compound?
Answer: Its GI50 is 80.2 nM.

Question: What about the TGI (HOP-92; 48-hour incubation) of the same compound?
Answer: The TGI was 8.99E − 05 mol/l.

Question: What about the CC50 (HOP-92; [1]) of the same compound?
Answer: The CC50 was over 100 µM.

Question: And the GI50 (MDA-MB-231/ATCC; 48-hour incubation)?
Answer: The GI50 was over 100 µM.

Question: What about the TGI (MDA-MB-231/ATCC; 48-hour incubation) of the same compound?
Answer: The TGI was over 1.00E − 04 mol/l.

Question: What about the CC50 (MDA-MB-231/ATCC; [1]) of the same compound?
Answer: Its CC50 is over 100 µM.

Question: And the GI50 (SK-OV-3; 48-hour incubation)?
Answer: The GI50 was 36.3 µM.

Question: And the TGI (SK-OV-3; 48-hour incubation)?
Answer: The TGI was over 1.00E − 04 mol/l.

Question: And the CC50 (SK-OV-3; [1])?
Answer: Its CC50 is over 100 µM.

Question: And the GI50 (SW-620; 48-hour incubation)?
Answer: Its GI50 is 62.8 µM.

Question: And the TGI (SW-620; 48-hour incubation)?
Answer: Its TGI is over 1.00E − 04 mol/l.

Question: What about the CC50 (SW-620; [1]) of the same compound?
Answer: Its CC50 is over 100 µM.

Question: And the GI50 (CAKI-1; 48-hour incubation)?
Answer: Its GI50 is 10.4 µM.

Question: And the TGI (CAKI-1; 48-hour incubation)?
Answer: The TGI was over 1.00E − 04 mol/l.

Question: And the CC50 (CAKI-1; [1])?
Answer: The CC50 was over 100 µM.
